Laboratory results: ChEMBL document CHEMBL1149990, “1-(2-METHOXYPHENYL)-4-ALKYLPIPERAZINES: EFFECT OF THE N-4 SUBSTITUENT ON THE AFFINITY AND SELECTIVITY FOR DOPAMINE D4 RECEPTOR” (Bioorg Med Chem Lett, 1997)
pKi: −log10 of the molar value.

Assays:
D(4) dopamine receptor = biological target: T1, D(4) dopamine receptor (Homo sapiens, UniProt P21917); assay: Displacement of [3H]YM-09151-2 from human Dopamine receptor D4.2 expressed in baculovirus Sf9 cells
T1 sequence (P21917 whole entry): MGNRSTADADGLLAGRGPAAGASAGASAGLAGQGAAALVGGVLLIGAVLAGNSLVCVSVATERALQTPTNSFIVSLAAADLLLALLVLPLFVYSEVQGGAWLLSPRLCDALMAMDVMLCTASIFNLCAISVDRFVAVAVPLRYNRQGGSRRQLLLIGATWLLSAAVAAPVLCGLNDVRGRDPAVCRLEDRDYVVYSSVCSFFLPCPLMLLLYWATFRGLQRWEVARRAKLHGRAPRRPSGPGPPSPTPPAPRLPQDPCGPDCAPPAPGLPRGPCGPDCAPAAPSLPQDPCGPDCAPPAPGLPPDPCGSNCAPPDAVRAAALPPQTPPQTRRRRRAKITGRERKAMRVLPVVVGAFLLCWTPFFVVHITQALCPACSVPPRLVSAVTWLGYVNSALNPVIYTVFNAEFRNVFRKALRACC

[1] = biological target: T2, Adrenergic receptor alpha-1 (Rattus norvegicus, UniProt P15823+P23944+P43140); assay: Displacement of [3H]prazosin from Alpha-1 adrenergic receptor of rat cerebral cortex; type: tissue-based
T2 sequence (P15823 whole entry): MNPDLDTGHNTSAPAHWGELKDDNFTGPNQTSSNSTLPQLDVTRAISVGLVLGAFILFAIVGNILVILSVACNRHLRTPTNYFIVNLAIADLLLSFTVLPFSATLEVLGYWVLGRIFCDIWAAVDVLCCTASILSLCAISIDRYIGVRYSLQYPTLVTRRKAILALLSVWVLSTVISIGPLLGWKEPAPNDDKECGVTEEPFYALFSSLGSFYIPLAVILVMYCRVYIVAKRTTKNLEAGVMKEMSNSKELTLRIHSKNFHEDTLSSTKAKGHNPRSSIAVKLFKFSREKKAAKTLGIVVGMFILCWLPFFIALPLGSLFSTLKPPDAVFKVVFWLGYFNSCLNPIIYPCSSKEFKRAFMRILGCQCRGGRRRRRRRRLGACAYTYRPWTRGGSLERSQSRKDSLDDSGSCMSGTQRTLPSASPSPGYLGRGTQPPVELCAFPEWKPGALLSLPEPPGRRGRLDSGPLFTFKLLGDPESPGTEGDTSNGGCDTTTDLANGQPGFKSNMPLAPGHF
T2 sequence (P23944 whole entry): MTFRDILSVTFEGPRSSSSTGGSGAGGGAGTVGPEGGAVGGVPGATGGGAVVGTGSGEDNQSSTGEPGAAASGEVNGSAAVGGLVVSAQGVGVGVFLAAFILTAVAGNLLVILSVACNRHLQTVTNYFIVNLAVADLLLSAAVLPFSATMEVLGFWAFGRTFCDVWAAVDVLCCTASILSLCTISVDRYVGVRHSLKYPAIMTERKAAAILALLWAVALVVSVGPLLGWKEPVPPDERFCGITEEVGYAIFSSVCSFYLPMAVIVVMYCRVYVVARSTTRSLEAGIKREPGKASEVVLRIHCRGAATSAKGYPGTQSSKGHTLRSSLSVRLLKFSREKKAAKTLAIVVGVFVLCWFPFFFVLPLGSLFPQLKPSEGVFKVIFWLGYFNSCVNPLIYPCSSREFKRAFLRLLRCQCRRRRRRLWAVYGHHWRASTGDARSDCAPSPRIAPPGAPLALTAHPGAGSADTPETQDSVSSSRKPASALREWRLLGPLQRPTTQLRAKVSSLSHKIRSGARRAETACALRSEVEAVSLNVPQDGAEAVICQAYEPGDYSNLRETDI
T2 sequence (P43140 whole entry): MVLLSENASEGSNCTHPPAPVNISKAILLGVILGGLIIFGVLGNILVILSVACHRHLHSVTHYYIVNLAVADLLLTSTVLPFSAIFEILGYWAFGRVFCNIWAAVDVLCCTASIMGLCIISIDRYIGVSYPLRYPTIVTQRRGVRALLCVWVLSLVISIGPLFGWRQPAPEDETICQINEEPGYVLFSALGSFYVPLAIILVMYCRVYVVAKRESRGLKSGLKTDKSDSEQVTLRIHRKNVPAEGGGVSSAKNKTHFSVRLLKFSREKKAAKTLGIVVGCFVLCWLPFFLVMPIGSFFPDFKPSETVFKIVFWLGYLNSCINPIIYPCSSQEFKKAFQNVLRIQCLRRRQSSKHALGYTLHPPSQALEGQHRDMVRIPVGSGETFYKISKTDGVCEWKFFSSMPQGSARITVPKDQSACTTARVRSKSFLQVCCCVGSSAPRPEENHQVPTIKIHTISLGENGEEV

Structure (SMILES)	pKi (D(4) dopamine receptor)	Ki [1] [nM]
COc1cc(N)c(Cl)cc1C(=O)NCCN1CCN(c2ccccc2OC)CC1	7.72	8
COc1cccc(C(=O)CCCCN2CCN(c3ccccc3OC)CC2)c1	7.37	41
COc1ccccc1N1CCN(CCCNC(=O)C2CCCc3cccc(OC)c32)CC1 (stereo not given)	7.31	70
COc1ccccc1N1CCN(CCCC2CCCc3c(OC)cccc32)CC1 (stereo not given)		1
COc1ccccc1N1CCN(CCCCC2CCCc3c(OC)cccc32)CC1 (stereo not given)	7.37	65
COc1ccccc1N1CCN(Cc2cccc(-c3ccccc3)c2)CC1	8.10	
COc1ccccc1N1CCN(CCC(=O)NC2CCCc3c(OC)cccc32)CC1 (stereo not given)	7.17	125
COc1cccc(C(=O)CCCN2CCN(c3ccccc3OC)CC2)c1	8.77	19
COc1ccccc1N1CCN(CCNC(=O)C2CCCc3c(OC)cccc32)CC1 (stereo not given)	7.66	
